Test results from patent US7320979B2, “N-[(piperazinyl)hetaryl]arylsulfonamide compounds” (Abbott GmbH & Co. KG., priority 2003, dated 2008).

Tests used:
[1] = target: T1, human dopamine D3 receptors (Homo sapiens, UniProt P35462); assay: Dopamine D3 receptor binding, displacement of [125I]-iodosulpride; conditions: membranes of HEK-293 cells stably expressing human D3 receptors; 0.1 nM [125I]-iodosulpride; 25° C., 60 minutes
T1 construct: expressed in transfected cells; host or cells: HEK-293
Method: (§1) The substance to be tested was either dissolved in methanol/Chremophor® (BASF-AG) or in dimethyl sulfoxide and then diluted with water to the desired concentration.
(§2) Each assay mixture was run in triplicate.
The incubation buffer contained 50 mM tris, 120 mM NaCl, 5 mM KCl, 2 mM CaCl2, 2 mM MgCl2 and 0.1% bovine serum albumin, 10 μM […] and 0.1% ascorbic acid (prepared fresh daily). The buffer was adjusted to pH 7.4 with HCl.
(§3) After having been incubated at 25° C. for 60 minutes, the assay mixtures were filtered through a Whatman GF/B glass fiber filter under vacuum using a cell collecting device. The filters were transferred to scintillation viols using a filter transfer system. After 4 ml of Ultima Gold® (Packard) have been added, the samples were shaken for one hour and the radioactivity was then counted in a Beta-Counter (Packard, Tricarb 2000 or 2200CA). The cpm values were converted into dpm using a standard quench series and the program belonging to the instrument.
(§4) The inhibition curves were analyzed by means of iterative nonlinear regression analysis using the Statistical Analysis System (SAS) which is similar to the “LIGAND” program described by Munson and Rodbard.

[2] = target: T2, human dopamine D2L receptors (long isoform) (Homo sapiens, UniProt P14416); assay: Dopamine D2L receptor binding, displacement of [125I] iodospiperone; conditions: footnote: ratio of the Ki values of the D3 and D2L binding tests
T2 construct: expressed in transfected cells; host or cells: HEK-293
T2 sequence (P14416 whole entry, canonical isoform): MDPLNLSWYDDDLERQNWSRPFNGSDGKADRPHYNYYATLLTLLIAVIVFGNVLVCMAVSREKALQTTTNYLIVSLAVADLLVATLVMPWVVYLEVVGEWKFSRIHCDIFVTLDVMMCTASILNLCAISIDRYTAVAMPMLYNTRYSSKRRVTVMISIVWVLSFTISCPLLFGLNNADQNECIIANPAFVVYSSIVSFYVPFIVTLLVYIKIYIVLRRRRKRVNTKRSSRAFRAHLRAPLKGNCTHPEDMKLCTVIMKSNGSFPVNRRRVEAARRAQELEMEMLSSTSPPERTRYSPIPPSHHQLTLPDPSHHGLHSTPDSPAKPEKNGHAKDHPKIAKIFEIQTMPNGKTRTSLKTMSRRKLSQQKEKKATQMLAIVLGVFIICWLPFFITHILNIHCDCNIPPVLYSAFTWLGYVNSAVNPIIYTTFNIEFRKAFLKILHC
Method: as §1, §2
The incubation buffer contained 50 mM tris, 120 mM NaCl, 5 mM KCl, 2 mM CaCl2, 2 mM MgCl2 and 0.1% bovine serum albumin. The buffer was adjusted to pH 7.4 with HCl.
as §3, §4

T1 sequence (P35462 whole entry): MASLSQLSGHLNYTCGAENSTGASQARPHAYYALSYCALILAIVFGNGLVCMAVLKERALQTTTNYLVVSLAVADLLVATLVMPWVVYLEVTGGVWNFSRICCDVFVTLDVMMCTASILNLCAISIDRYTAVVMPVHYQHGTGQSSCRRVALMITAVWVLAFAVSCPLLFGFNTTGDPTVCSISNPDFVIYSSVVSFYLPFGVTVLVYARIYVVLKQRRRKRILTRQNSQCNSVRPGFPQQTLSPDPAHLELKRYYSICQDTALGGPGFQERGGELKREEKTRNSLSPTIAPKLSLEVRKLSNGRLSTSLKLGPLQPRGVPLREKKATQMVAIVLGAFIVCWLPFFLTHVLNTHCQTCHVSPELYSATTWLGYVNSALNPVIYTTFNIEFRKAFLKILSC

SMILES | Ki [1] [nM] | Selectivity vs. D2L [2]
C=CCN1CCN(c2ccc(NS(=O)(=O)c3ccc(C(C)C)cc3)cn2)CC1 [Example 1, N-[6-(4-Allylpiperazin-1-yl)pyridin-3-yl]-4-isopropylbenzenesulfonamide] | 3 | 232
C=CCN1CCN(c2ccc(NS(=O)(=O)c3ccc(CCC)cc3)cn2)CC1 [Example 2, N-[6-(4-Allylpiperazin-1-yl)pyridin-3-yl]-4-propylbenzenesulfonamide] | 5.5 | 25
C=CCN1CCN(c2ccc(NS(=O)(=O)c3ccc(CCCC)cc3)cn2)CC1 [Example 3, N-[6-(4-Allylpiperazin-1-yl)pyridin-3-yl]-4-butylbenzenesulfonamide] | 5.9 | 15
C=CCN1CCN(c2ccc(NS(=O)(=O)c3ccc(CC)cc3)cn2)CC1.Cl [Example 5, N-[6-(4-Allylpiperazin-1-yl)pyridin-3-yl]-4-ethylbenzenesulfonamide hydrochloride] | 11.4 | 108
C=CCN1CCN(c2ccc(NS(=O)(=O)c3ccc(C=C)cc3)cn2)CC1.Cl [Example 6, N-[6-(4-Allylpiperazin-1-yl)pyridin-3-yl]-4-vinylbenzenesulfonamide hydrochloride] | 9.7 | 169
CC(C)c1ccc(S(=O)(=O)Nc2ccc(N3CCNCC3)nc2)cc1 [Example 7, 4-Isopropyl-N-(6-piperazin-1-ylpyridin-3-yl)benzenesulfonamide] | 11.4 | 68
CC(C)c1ccc(S(=O)(=O)Nc2ccc(N3CCN(C)CC3)nc2)cc1 [Example 10, 4-Isopropyl-N-[6-(4-methylpiperazin-1-yl)pyridin-3-yl]benzenesulfonamide] | 7.5 | 93
CCN1CCN(c2ccc(NS(=O)(=O)c3ccc(C(C)C)cc3)cn2)CC1.Cl [Example 11, N-[6-(4-Ethylpiperazin-1-yl)pyridin-3-yl]-4-isopropylbenzenesulfonamide hydrochloride] | 6.2 | 77

Results, then the molecule that gave them:

Ki [1] [nM] | Selectivity vs. D2L [2] | SMILES
3.6 | 131 | C=CCN1CCN(c2ccc(NS(=O)(=O)c3ccc(C(C)C)cc3)cn2)CC1C.Cl (racemic) [Example 13, N-[6-(4-Allyl-3-methylpiperazin-1-yl)pyridin-3-yl]-4-isopropylbenzenesulfonamide hydrochloride]
2.5 | 81 | CCCN1CCN(c2ccc(NS(=O)(=O)c3ccc(C(C)C)cc3)cn2)CC1C.Cl (racemic) [Example 14, 4-Isopropyl-N-[6-(3-methyl-4-propylpiperazin-1-yl)pyridin-3-yl]benzenesulfonamide hydrochloride]
2.7 | 96 | C=CCN1CCN(c2ccc(NS(=O)(=O)c3ccc(C(C)C)cc3)cn2)C[C@@H]1C [Example 13a, N-{6-[4-Allyl-(3S)-methylpiperazin-1-yl]pyridin-3-yl}-4-isopropylbenzenesulfonamide]
1.5 | 184 | CCCN1CCN(c2ccc(NS(=O)(=O)c3ccc(C(C)C)cc3)cn2)C[C@@H]1C [Example 14a, 4-Isopropyl-N-{6-[(3S)-methyl-4-propylpiperazin-1-yl]pyridin-3-yl}benzenesulfonamide]
3.8 | 131 | C=CCN1CCN(c2ncc(NS(=O)(=O)c3ccc(C(C)C)cc3)cn2)CC1 [Example 16, N-[2-(4-Allylpiperazin-1-yl)pyrimidin-5-yl]-4-isopropylbenzenesulfonamide]
8.2 | 148 | CCCN1CCN(c2ncc(NS(=O)(=O)c3ccc(C(C)C)cc3)cn2)CC1.Cl [Example 17, 4-Isopropyl-N-[2-(4-propylpiperazin-1-yl)pyrimidin-5-yl]benzenesulfonamide hydrochloride]
36.9 | 91 | C=CCN1CCN(c2ccc(NS(=O)(=O)c3ccc(Br)cc3)cn2)CC1.Cl [Example 19, N-[2-(4-Allylpiperazin-1-yl)pyridin-5-yl]-4-bromobenzenesulfonamide hydrochloride]
